Reference: patent publication US20030055106A1, “Therapeutic uses of peroxometallic compounds” (priority 1999, published 2003)

Experiments:
[1] = system: Human umbilical vein endothelial cells (HUVECs); conditions: read-out: approximate IC50, endothelial cell proliferation; 96 hours in culture
Method: Each experiment was performed in triplicate. The culture medium was changed daily.

HUVECs = assay: HUVEC differentiation and organization into tubular-like structures in fibrin matrix; type: cell-based, Human; design: key to cords / tubes / Stell. struct.: †: Dead cells
Method: Alternatively, HUVECs cultured in a fibrin matrix can form 3-dimensional tubular-like structures in the presence of serum (103). This assay was performed in the presence of either bpV(phen), bpv(pic) or vanadate to assess the influence of each one of these compounds on HUVEC differentiation and organization (Table 1). HUVECs were seeded on the bottom of gelatin-coated wells at high density to provide a confluent monolayer at 48 hours.
Then, 50 000 HUVECs/ml were embedded in fibrinogen solution prior to polymerization. The fibrin matrix was covered with culture medium containing the molecule to be tested, while culture medium without any of these molecules served as controls. Cell behavior was observed periodically by phase contrast microscopy.

Rat aorta rings = assay: Rat aortic ring assay (cell/microvessel migration in fibrin gel); type: cell-based
Text: FIG. 3: Micrographs of the cell migration from aortic rings embedded in fibrin (×12).
FIG. 4: Quantification of the cell migration from aortic rings in the presence of orthovanadate (plain bars); bpV(phen) (light gray bars); and bpV(pic) (dark gray bars). The control appears as an empty bar. Means and standard errors of the means are presented.
Rat aorta rings were embedded in fibrin matrix as previously described (107). Thoracic aortas excised from adult rats were rinsed in Hank's balanced salt solution (HBSS), and cleansed of periadventitial. One-mm long aortic rings were sectioned and rinsed in culture medium. Each of the aortic rings were then embedded in fibrin gel matrix. Migration of microvessels in fibrin gel was quantified by measuring the distance from the external surface of rat aortic rings towards the migrating vessels. Measurements were performed at day 15 by digitizing morphometry with a NIH image analysis system (FIGS. 3 and 4).

[2] = system: vitelline membrane of chick embryos; assay: Embryonic vascularization test (EVT) ex ovo; type: in vivo; conditions: for approximate IC50, neovascularization (regardless of the scoring system): per methylcellulose disc
Text: FIG. 2: A and B show an anti-angiogenic response to bpV(phen), orthovanadate (Van) and protamine (Prot) using a vascularization test on the vitelline membrane of chick embryos. Each point represents a minimum of 15 embryos (15 to 28).
The normal development of a chick embryo involves the formation of an external vascular system which is located in the vitelline membrane and which carries nutrients from the vitellus (yolk of the egg) to the developing embryo. When placed onto the vitelline membrane, anti-angiogenic substances can inhibit blood vessel development in the vitelline membrane. To facilitate access to the vitelline membrane, chick embryos were transferred to a sterile culture box (Petri dish) and placed in a humidity- and temperature-controlled incubator. Embryos could then develop in this ex ovo condition for several days.
An aliquot of the tested compound was mixed with a methylcellulose solution and allowed to air-dry into thin discs. Methylcellulose forms an inert matrix from which the tested compound can diffuse slowly. Methylcellulose discs containing the tested compound were placed on the external border of the vascular perimeter of the vitelline membrane where the angiogenic process was still active.
The effects of the discs containing the tested compound on proximal vascular development were, in all cases, compared with those of discs containing control buffer. The discs were placed on the embryos' vitelline membrane on Day 0 or Day 1 of the ex ovo growth process; at this point, only beginnings of the main blood vessels are invading the vitellus. The embryos were then put in culture conditions until vascularization was assessed (approximately 24 h). Control buffer- and compound-containing discs were in all cases added simultaneously on the vitelline membrane of the same embryo. Both discs were arranged in a symmetrical fashion with respect to the cephalo-caudal axis of the embryo in order to minimize inter-individual variations when comparing the tested compounds with controls.
[…] After one day in culture, the level of vascularization in the area covered by the discs was graded by a pair of scientists in the usual blind fashion. To facilitate the location of the discs, black O-rings were placed around them just after their placement on the vitelline membrane. The evaluation scale for the EVTs was based on two different scoring systems.
Blood vessel formation was assessed in a blind fashion. The areas of the vitelline membranes that lay beneath the methylcellulose discs were scored for the degree of vascularization, using two scoring systems (“N/+” or “1-2-3”). The following selection criteria were used:
A score of “N” for “Normal” was attributed when all the following conditions were met:
Blood vessels in the evaluated area grew along their path with no abnormal deviation. Collateral branching density was normal and the growth path of the lateral branches was also normal.
A score of “+” was attributed when at least one of the following conditions was met:
1-2-3 Grading Scale System:
A score of 3 was attributed when the following conditions were met:
A score of 2 was attributed when at least one of the following conditions was met:
A score of 1 was attributed when at least one of the following conditions was met:
A score of 3 meant that blood vessel development was normal whereas a score of 1 indicated the greatest degree of angiostatic activity.

ETs (ET-1, ET-2, ET-3) = assay: Plasma endothelin levels after insulin (RIA); type: in vivo; conditions: rats; two minutes after insulin 1.5 μg/100 g b.w.; no bpV(phen)
Method: The data presented in Table III show the effect of bpV(phen) on the plasmatic levels of ETs. […] Two minutes following insulin administration (1.5 μg/100 g b.w, or vehicle), the plasma levels of ETs were determined. Insulin administration induced a strong increase of seric ET concentration (54). […] In addition, bpV(phen) decreased the insulin-stimulated levels of plasmatic ETs below control levels. […] ETs (ET-1, ET-2, ET-3) were measured by RIA (Amersham kit RPA 555) after lyophilization and extraction on C2 columns (500 mg). Results are mean ±SEM, p<0.0209, control (n=4) vs Insulin, pV (n=3).

left carotid artery = assay: Balloon angioplasty of the left carotid artery (restenosis); type: in vivo, Male Sprague-Dawley rats
Method: The data presented in Table IV show the effect of the pV compound bpV(bipy) on restenosis. Male Sprague-Dawley rats (325-350 g) were anaesthetized with Rogarsetic, a mixture of ketamine hydrochloride and xylazine hydrochloride. The animals were divided into two groups of 14-31 rats that underwent balloon angioplasty of the left carotid artery, with or without treatment (108). The treated group received bpV (bipy) (10 mg/kg/i.p. b.i.d.) for 14 days, starting on the day of the angioplasty. Every animal in each group underwent balloon angioplasty of the left external carotid whereas the contra-lateral carotid served as a control for each animal. The left carotid artery balloon angioplasty was performed under aseptic conditions. The left external carotid was isolated and an arteriotomy was performed. A 2F Fogarty arterial embolectomy catheter was then inserted in the left common carotid and positioned near the aortic arch. The balloon was then inflated and retracted with a twisting motion to its insertion point. This procedure was repeated twice and the external carotid was ligated. There were no differences in the lumina (L), intima (I), media (M), the ratio of I/M and calculated value of (M−L/P) as a measure of neointimal proliferation (NIP) between normal, non-ballooned carotid artery of treated and non-treated rats, serving as controls (data not shown).

[3] = anti-angiogenic effect on stellate structures
[4] = 10 mg/kg/i.p. b.i.d. for 14 days, ballooned left carotid
[5] = treated vs non-treated, 10 mg/kg/i.p. b.i.d. 14 days

## O=C(O)c1ccccn1.OO.OO.[K+].[K+].[O]=[V] [bpV(pic), potassium bisperoxo(pyridine-2-carboxylato)oxovanadate]
[1]
  IC50: ~3.5 µM
HUVECs; 1, 2 and 3.5 μM
  structures observed by phase contrast microscopy: cords and tubes were observed
Rat aorta rings; 10-25 μM
  cell migration from aortic rings: inhibition was seen

## Protamine
[2]; 5 μg, Assay 1
  Anti-angio.activity 1 to 3 (1: no angiogenesis; 3: normal angiogenesis): 2.3
  Anti-angio.activity % (proportion of embryos showing an anti-angiogenic response): 23%
[2]; 5 μg, Assay 4
  Anti-angio.activity 1 to 3 (1: no angiogenesis; 3: normal angiogenesis): 2.3
  Anti-angio.activity % (proportion of embryos showing an anti-angiogenic response): 9%
[2]; 5 μg, Assay 5
  Anti-angio.activity 1 to 3 (1: no angiogenesis; 3: normal angiogenesis): 2.3
  Anti-angio.activity % (proportion of embryos showing an anti-angiogenic response): 16%
[2]; 10 μg, Assay 4
  Anti-angio.activity 1 to 3 (1: no angiogenesis; 3: normal angiogenesis): 2.1
  Anti-angio.activity % (proportion of embryos showing an anti-angiogenic response): 54%
[2]; 10 μg, Assay 5
  Anti-angio.activity 1 to 3 (1: no angiogenesis; 3: normal angiogenesis): 2.1
  Anti-angio.activity % (proportion of embryos showing an anti-angiogenic response): 54%
[2]; 20 μg, Assay 1
  Anti-angio.activity 1 to 3 (1: no angiogenesis; 3: normal angiogenesis): 2.0
  Anti-angio.activity % (proportion of embryos showing an anti-angiogenic response): 46%
[2]; 20 μg, Assay 2
  Anti-angio.activity 1 to 3 (1: no angiogenesis; 3: normal angiogenesis): 1.5
  Anti-angio.activity % (proportion of embryos showing an anti-angiogenic response): 80%
[2]; 20 μg, Assay 3
  Anti-angio.activity 1 to 3 (1: no angiogenesis; 3: normal angiogenesis): 1.5
  Anti-angio.activity % (proportion of embryos showing an anti-angiogenic response): 79%
[2]; 20 μg, Assay 4
  Anti-angio.activity 1 to 3 (1: no angiogenesis; 3: normal angiogenesis): 1.8
  Anti-angio.activity % (proportion of embryos showing an anti-angiogenic response): 80%
[2]; 20 μg, Assay 5
  Anti-angio.activity 1 to 3 (1: no angiogenesis; 3: normal angiogenesis): 1.7
  Anti-angio.activity % (proportion of embryos showing an anti-angiogenic response): 71%
[2]; 30 μg, Assay 4
  Anti-angio.activity 1 to 3 (1: no angiogenesis; 3: normal angiogenesis): 1.8
  Anti-angio.activity % (proportion of embryos showing an anti-angiogenic response): 67%
[2]; 30 μg, Assay 5
  Anti-angio.activity 1 to 3 (1: no angiogenesis; 3: normal angiogenesis): 1.8
  Anti-angio.activity % (proportion of embryos showing an anti-angiogenic response): 67%
[2]
  approximate IC50, neovascularization (regardless of the scoring system): ~11 µg

## [O]=[V]([O-])([O-])[O-] [orthovanadate]
HUVECs; 10 μM
  structures observed by phase contrast microscopy: cords were still apparent
HUVECs; 25 μM
  Stell. struct.: †
  cords: †
  structures observed by phase contrast microscopy: dead cells were sparsely distributed
  tubes: †
HUVECs; [3]
  times less potent than bpV(phen): ≥ 5 times
  times less potent than bpV(pic): at least 3 times
Rat aorta rings; 3.5 μM
  cell migration from aortic rings: no effect
Rat aorta rings; 25 μM
  cell migration from aortic rings: partial inhibition
[2]; 0.001 μg, Assay 3
  Anti-angio.activity 1 to 3 (1: no angiogenesis; 3: normal angiogenesis): 2.8
  Anti-angio.activity % (proportion of embryos showing an anti-angiogenic response): 7%
[2]; 0.001 μg, Assay 5
  Anti-angio.activity 1 to 3 (1: no angiogenesis; 3: normal angiogenesis): 2.8
  Anti-angio.activity % (proportion of embryos showing an anti-angiogenic response): 7%
[2]; 0.01 μg, Assay 3
  Anti-angio.activity 1 to 3 (1: no angiogenesis; 3: normal angiogenesis): 2.4
  Anti-angio.activity % (proportion of embryos showing an anti-angiogenic response): 24%
[2]; 0.01 μg, Assay 5
  Anti-angio.activity 1 to 3 (1: no angiogenesis; 3: normal angiogenesis): 2.4
  Anti-angio.activity % (proportion of embryos showing an anti-angiogenic response): 24%
[2]; 0.1 μg, Assay 3
  Anti-angio.activity 1 to 3 (1: no angiogenesis; 3: normal angiogenesis): 2.4
  Anti-angio.activity % (proportion of embryos showing an anti-angiogenic response): 28%
[2]; 0.1 μg, Assay 5
  Anti-angio.activity 1 to 3 (1: no angiogenesis; 3: normal angiogenesis): 2.4
  Anti-angio.activity % (proportion of embryos showing an anti-angiogenic response): 28%
[2]; 1 μg, Assay 3
  Anti-angio.activity 1 to 3 (1: no angiogenesis; 3: normal angiogenesis): 2.0
  Anti-angio.activity % (proportion of embryos showing an anti-angiogenic response): 70%
[2]; 1 μg, Assay 4
  Anti-angio.activity 1 to 3 (1: no angiogenesis; 3: normal angiogenesis): 1.7
  Anti-angio.activity % (proportion of embryos showing an anti-angiogenic response): 57%
[2]; 1 μg, Assay 5
  Anti-angio.activity 1 to 3 (1: no angiogenesis; 3: normal angiogenesis): 1.9
  Anti-angio.activity % (proportion of embryos showing an anti-angiogenic response): 64%
[2]
  approximate IC50, neovascularization (regardless of the scoring system): ~0.6 µg

## Insulin: insulin administered to rats to induce an increase of ET concentration
ETs (ET-1, ET-2, ET-3)
  Plasma endothelins: 253.10 pg/mL

## [K+].[O]=[V-]12([O][O]1)[O][O]2.c1ccc(-c2ccccn2)nc1 [bpV(bipy), potassium bisperoxo(2,2′-bipyridyl) oxovanadate]
Left carotid artery; [4]
  I (intima): 0.112 mm^2
  I/M: 1.086
  L (lumina): 0.112 mm^2
  M (media): 0.104
  NIP (neointimal proliferation): 0.045 mm
Left carotid artery; [5]
  decrease in NIP: 32%
  decrease in the I/M ratio: 32%
  increase in the opening of the L: 28%
  reduction in the thickness of the I: 21%
